Results taken from the CheMixHub viscosity set.
Values joined by “and” are separate entries in the source; they are usually repeats but may differ in a detail not shown here. Identical values can stand only once.

Assay: xn = mol fraction of the nth substance listed

[Cl-].[K+] + O
Settings	viscosity
293.15 K, 101 kPa, x1 = 0.005905	0.9971 mPa·s and 0.9972 mPa·s
293.15 K, 101 kPa, x1 = 0.009253	0.9943 mPa·s
293.15 K, 101 kPa, x1 = 0.01811	0.9892 mPa·s and 0.989 mPa·s
293.15 K, 101 kPa, x1 = 0.02711	0.9882 mPa·s and 0.9881 mPa·s
293.15 K, 101 kPa, x1 = 0.03656	0.9913 mPa·s
293.15 K, 101 kPa, x1 = 0.0468	0.9995 mPa·s and 0.9994 mPa·s
293.15 K, 101 kPa, x1 = 0.07583	1.047 mPa·s
297.65 K, 100 kPa, x1 = 0.02628	0.905 mPa·s and 0.904 mPa·s
298.15 K, 100 kPa, x1 = 0.05933	0.932 mPa·s and 0.933 mPa·s
298.15 K, 101 kPa, x1 = 0.005905	0.8895 mPa·s
298.15 K, 101 kPa, x1 = 0.009253	0.8885 mPa·s and 0.8886 mPa·s
298.15 K, 101 kPa, x1 = 0.01811	0.8883 mPa·s and 0.8882 mPa·s
298.15 K, 101 kPa, x1 = 0.02711	0.8911 mPa·s and 0.891 mPa·s
298.15 K, 101 kPa, x1 = 0.0468	0.908 mPa·s and 0.9079 mPa·s
298.15 K, 101 kPa, x1 = 0.05806	0.9238 mPa·s
298.15 K, 101 kPa, x1 = 0.06612	0.9378 mPa·s and 0.9377 mPa·s
298.15 K, 101 kPa, x1 = 0.07583	0.9577 mPa·s and 0.9576 mPa·s
298.15 K, 101.3 kPa, x1 = 0.00072	0.8908 mPa·s
298.15 K, 101.3 kPa, x1 = 0.00162	0.8906 mPa·s
298.15 K, 101.3 kPa, x1 = 0.002874	0.8911 mPa·s
298.15 K, 101.3 kPa, x1 = 0.004484	0.8895 mPa·s
298.15 K, 101.3 kPa, x1 = 0.007154	0.8891 mPa·s
298.15 K, 101.3 kPa, x1 = 0.01245	0.8885 mPa·s
298.15 K, 101.3 kPa, x1 = 0.0177	0.8882 mPa·s
299.15 K, 100 kPa, x1 = 0.07333	0.95 mPa·s and 0.949 mPa·s
299.65 K, 100 kPa, x1 = 0.04316	0.888 mPa·s
300.15 K, 100 kPa, x1 = 0.008975	0.86 mPa·s and 0.858 mPa·s
303.15 K, 101 kPa, x1 = 0.005905	0.7997 mPa·s
303.15 K, 101 kPa, x1 = 0.009253	0.8005 mPa·s and 0.8003 mPa·s
303.15 K, 101 kPa, x1 = 0.01811	0.8034 mPa·s and 0.8032 mPa·s
303.15 K, 101 kPa, x1 = 0.03656	0.8174 mPa·s
303.15 K, 101 kPa, x1 = 0.0468	0.8296 mPa·s and 0.8294 mPa·s
303.15 K, 101 kPa, x1 = 0.05806	0.8467 mPa·s and 0.8466 mPa·s
303.15 K, 101 kPa, x1 = 0.06612	0.8611 mPa·s and 0.8612 mPa·s
303.15 K, 101 kPa, x1 = 0.07583	0.8802 mPa·s and 0.8799 mPa·s
307.15 K, 100 kPa, x1 = 0.05933	0.798 mPa·s and 0.799 mPa·s
308.15 K, 100 kPa, x1 = 0.05933	0.793 mPa·s and 0.794 mPa·s
308.15 K, 101.3 kPa, x1 = 0.00072	0.7204 mPa·s
308.15 K, 101.3 kPa, x1 = 0.00162	0.721 mPa·s
308.15 K, 101.3 kPa, x1 = 0.007154	0.7241 mPa·s
308.15 K, 101.3 kPa, x1 = 0.01245	0.7273 mPa·s
308.15 K, 101.3 kPa, x1 = 0.0177	0.7305 mPa·s
308.65 K, 100 kPa, x1 = 0.02628	0.738 mPa·s and 0.737 mPa·s
308.65 K, 100 kPa, x1 = 0.04316	0.761 mPa·s and 0.759 mPa·s
309.15 K, 100 kPa, x1 = 0.008975	0.717 mPa·s
309.15 K, 100 kPa, x1 = 0.07333	0.805 mPa·s
313.15 K, 101 kPa, x1 = 0.005905	0.6585 mPa·s
313.15 K, 101 kPa, x1 = 0.009253	0.661 mPa·s
313.15 K, 101 kPa, x1 = 0.01811	0.6685 mPa·s and 0.6683 mPa·s
313.15 K, 101 kPa, x1 = 0.02711	0.6774 mPa·s
313.15 K, 101 kPa, x1 = 0.03656	0.6885 mPa·s
313.15 K, 101 kPa, x1 = 0.0468	0.7028 mPa·s
313.15 K, 101 kPa, x1 = 0.05806	0.7211 mPa·s
313.15 K, 101 kPa, x1 = 0.06612	0.7359 mPa·s
313.15 K, 101 kPa, x1 = 0.07583	0.7551 mPa·s
316.15 K, 100 kPa, x1 = 0.008975	0.629 mPa·s and 0.63 mPa·s
317.65 K, 100 kPa, x1 = 0.02628	0.631 mPa·s
317.65 K, 100 kPa, x1 = 0.05933	0.686 mPa·s
318.15 K, 100 kPa, x1 = 0.07333	0.705 mPa·s and 0.706 mPa·s
318.15 K, 101.3 kPa, x1 = 0.00072	0.5972 mPa·s
318.15 K, 101.3 kPa, x1 = 0.00162	0.5983 mPa·s
318.15 K, 101.3 kPa, x1 = 0.002874	0.6 mPa·s
318.15 K, 101.3 kPa, x1 = 0.004484	0.601 mPa·s
318.15 K, 101.3 kPa, x1 = 0.007154	0.6037 mPa·s
319.15 K, 100 kPa, x1 = 0.04316	0.643 mPa·s and 0.64 mPa·s
323.15 K, 101 kPa, x1 = 0.005905	0.554 mPa·s
323.15 K, 101 kPa, x1 = 0.01811	0.5673 mPa·s
323.15 K, 101 kPa, x1 = 0.02711	0.5782 mPa·s
323.15 K, 101 kPa, x1 = 0.0468	0.6058 mPa·s
323.15 K, 101 kPa, x1 = 0.05806	0.6242 mPa·s
323.15 K, 101 kPa, x1 = 0.06612	0.6389 mPa·s
323.15 K, 101 kPa, x1 = 0.07583	0.6575 mPa·s

CC(C)N + O=C1CCCCC1
298.15 K, 101 kPa
Settings	viscosity [mPa·s]
x2 = 0.0627	0.41
x2 = 0.1309	0.604
x2 = 0.2051	0.844
x2 = 0.2865	1.135
x2 = 0.3759	1.498
x2 = 0.4746	1.904
x2 = 0.5842	2.083
x2 = 0.7067	2.162
x2 = 0.8442	2.051

OCC(F)(F)F + O=C1CCCN1
viscosity [mPa·s], 101 kPa
Settings	x1 = 0.3	x1 = 0.4	x1 = 0.5	x1 = 0.6	x1 = 0.7	x1 = 0.8	x1 = 0.9
293.15 K	9.082	6.392	4.918	3.907	3.208	2.768	2.477
303.15 K	6.16	4.724	3.801	3.071	2.519	2.146	1.882
313.15 K	4.448	3.625	3.008	2.458	2.015	1.705	1.478
323.15 K	3.389	2.875	2.431	1.999	1.64	1.384	1.194

C[N+](C)(C)CC(=O)[O-] + O=C1O[C@H]([C@@H](O)CO)C(O)=C1O
Settings	viscosity [mPa·s]
298.15 K, 101.33 kPa, x2 = 0.5	721.2

C[N+](C)(C)CC(=O)[O-] + O=C(O)CC(O)(CC(=O)O)C(=O)O
101.3 kPa, x1 = 0.333
Settings	viscosity [mPa·s]
298 K	36920
323 K	2775

Brc1ccccc1 + O=[N+]([O-])c1ccccc1
viscosity [mPa·s], 101 kPa
Settings	x2 = 0.117	x2 = 0.225	x2 = 0.345	x2 = 0.464	x2 = 0.554	x2 = 0.676	x2 = 0.79	x2 = 0.887
298.15 K	1.106	1.164	1.227	1.296	1.352	1.465	1.556	1.673
303.15 K	1.036	1.075	1.13	1.209	1.246	1.355	1.459	1.551
308.15 K	0.973	1.015	1.06	1.117	1.173	1.251	1.345	1.423

C=CC[P+](c1ccccc1)(c1ccccc1)c1ccccc1.[Br-] + OCC(O)CO
101 kPa, x1 = 0.0667
Settings	viscosity [mPa·s]
296.84 K	1037
302.15 K	679.9
306.82 K	475.9
312.25 K	314.4

C1COCCO1 + OCCO
viscosity [mPa·s], 100 kPa
Settings	x1 = 0.1014	x1 = 0.2054	x1 = 0.2968	x1 = 0.3998	x1 = 0.4966	x1 = 0.5992	x1 = 0.7005	x1 = 0.7985	x1 = 0.8969
293.15 K	15.53	11.26	8.022	5.534	3.77	2.758	2.223	1.737	1.405
298.15 K	12.4	9.243	6.602	4.535	3.152	2.436	1.983	1.569	1.329
303.15 K	10.21	7.423	5.425	3.682	–	2.169	1.78	1.401	–

C=CC[P+](c1ccccc1)(c1ccccc1)c1ccccc1.[Br-] + OCCOCCO
viscosity [mPa·s], 100 kPa
Settings	293.15 K	298.15 K	303.15 K	308.15 K	313.15 K	318.15 K	323.15 K
x1 = 0.05884	57.19	43.59	33.68	26.69	21.74	17.83	14.79
x1 = 0.09089	70.92	53.42	41.11	32.27	25.8	20.96	17.27
x1 = 0.2	213.2	150.8	109.1	81.11	61.8	47.98	37.87

C=CC[P+](c1ccccc1)(c1ccccc1)c1ccccc1.[Br-] + OCCOCCOCCO
viscosity [mPa·s], 100 kPa
Settings	293.15 K	298.15 K	303.15 K	308.15 K	313.15 K	318.15 K	323.15 K
x1 = 0.05879	76.63	57.94	44.82	35.26	28.28	22.99	18.97
x1 = 0.0909	95.29	71.69	54.83	42.76	33.94	27.41	22.42
x1 = 0.2	233.7	166.5	121.6	90.91	69.36	53.99	42.73
